Measurements published in doi:10.1101/2024.08.25.609621 (bioRxiv, 2024).
Read-outs that look alike come from different tables or passages of the source.

Assays:
[1] = molecular target: SARS-CoV-2 NSP3 macrodomain (Mac1) (Severe acute respiratory syndrome coronavirus 2, UniProt P0DTD1); assay: biochemical; assay type: binding; details: for Ligand efficiency (binding enery per heavy atom): from SARS CoV-2 macrodomain HTRF assay
[2] = molecular target: SARS-CoV-2 NSP3 macrodomain (Mac1), P43 crystal form (Severe acute respiratory syndrome coronavirus 2, UniProt P0DTD1); assay type: binding; details: for Number of isomers bound: ligand modeling in Mac1 crystal structure; for Isomers modeled: stereoisomer(s) modeled in Mac1 crystal structure
[3] = dose-response, read-out: SARS CoV-2 macrodomain HTRF assay: IC50
[4] = dose-response, read-out: SARS CoV-2 macrodomain HTRF assay: Ki
[5] = preliminary screen, compound at 200 μM, mean of 3-4 technical replicates, read-out: % competition in HTRF assay

CC1CCCC(O)(CNc2ncnc3[nH]ccc23)C1 (centres unmarked) [AVI-4307]
IC50 [1, 3]: 40 µM | Ki [1, 4]: 37 µM | Ligand efficiency (binding enery per heavy atom) [1]: 0.32 | Number of isomers bound [2]: 1

OC1(CNc2ncnc3[nH]ccc23)CCC(F)(F)CC1 [AVI-4308]
IC50 [1, 3]: 140 µM | Ki [1, 4]: 130 µM | Ligand efficiency (binding enery per heavy atom) [1]: 0.27 | Number of isomers bound [2]: 1 | Isomers modeled [2]: achiral

OC1(CNc2ncnc3[nH]ccc23)CCCC(C(F)(F)F)C1 (centres unmarked) [AVI-4309]
IC50 [1, 3]: 150 µM | Ki [1, 4]: 140 µM | Ligand efficiency (binding enery per heavy atom) [1]: 0.24 | Number of isomers bound [2]: 1

OC1(CNc2ncnc3[nH]ccc23)CCCOC1 (centres unmarked) [AVI-4311]
IC50 [1, 3]: 170 µM | Ki [1, 4]: 160 µM | Ligand efficiency (binding enery per heavy atom) [1]: 0.29 | Number of isomers bound [2]: 1

CC1CCC(O)(CNc2ncnc3[nH]ccc23)CC1 (centres unmarked) [AVI-4312]
IC50 [1, 3]: 21 µM | Ki [1, 4]: 20 µM | Ligand efficiency (binding enery per heavy atom) [1]: 0.34 | Number of isomers bound [2]: 1 | Isomers modeled [2]: rr

OC1(CNc2ncnc3[nH]ccc23)COC2CC1C2 (centres unmarked) [AVI-4313]
IC50 [1, 3]: 130 µM | Ki [1, 4]: 120 µM | Ligand efficiency (binding enery per heavy atom) [1]: 0.29 | Number of isomers bound [2]: 1

OC1(CNc2ncnc3[nH]ccc23)CCOCC1 [AVI-4314]
IC50 [1, 3]: 230 µM | Ki [1, 4]: 210 µM | Ligand efficiency (binding enery per heavy atom) [1]: 0.28 | Number of isomers bound [2]: 1 | Isomers modeled [2]: achiral

O=S1(=O)CCCC(O)(CNc2ncnc3[nH]ccc23)C1 (centres unmarked) [AVI-4317]
fold less potent compared to the AVI-3761 parent ([1]; HTRF IC50): ~ 4 fold | Ki [1, 4]: 100 µM | Ligand efficiency (binding enery per heavy atom) [1]: 0.28 | IC50 ([1]; read-out: HTRF IC50): 110 µM | Number of isomers bound [2]: 1

CN(CC1(O)CCOCC1)c1ncnc2[nH]ccc12 [AVI-4318]
IC50 [1, 3]: 71 µM | Ki [1, 4]: 66 µM | Ligand efficiency (binding enery per heavy atom) [1]: 0.30 | Number of isomers bound [2]: 1 | Isomers modeled [2]: achiral

OC1(CNc2ncnc3[nH]ccc23)CCSCC1 [AVI-4319]
IC50 [1, 3]: 170 µM | Ki [1, 4]: 160 µM | Ligand efficiency (binding enery per heavy atom) [1]: 0.29 | Number of isomers bound [2]: 1 | Isomers modeled [2]: achiral

OC1(CNc2ncnc3[nH]ccc23)CC2CCC1CC2 (centres unmarked) [AVI-4320]
IC50 [1, 3]: 83 µM | Ki [1, 4]: 77 µM | Ligand efficiency (binding enery per heavy atom) [1]: 0.28 | Number of isomers bound [2]: 1

OC1(CNc2ncnc3[nH]ccc23)CCCSC1 (centres unmarked) [AVI-4322]
IC50 [1, 3]: 53 µM | Ki [1, 4]: 49 µM | Ligand efficiency (binding enery per heavy atom) [1]: 0.33 | Number of isomers bound [2]: 1

Cc1c[nH]c2ncnc(NCC3(O)CCC(C)CC3)c12 (centres unmarked) [AVI-4331]
IC50 [1, 3]: 210 µM | Ligand efficiency (binding enery per heavy atom) [1]: 0.26 | Number of isomers bound [2]: 1 | Isomers modeled [2]: rr

CC(O)C(C)Nc1ncnc2[nH]ccc12 (centres unmarked) [AVI-5158]
inhibition at 200 µM ([1]; Single dose, concentration 200 μM, read-out: Average % competition): 32% | inhibition at 200 µM [1, 5]: 32% | Number of isomers bound [2]: 2 | Isomers modeled [2]: RS,RR

CC(C)C1CCCN1c1ncnc2[nH]ccc12 (centres unmarked) [AVI-5216]
inhibition at 200 µM ([1]; Single dose, concentration 200 μM, read-out: SARS CoV-2 macrodomain HTRF assay: Average % competition): 35% | inhibition at 200 µM [1, 5]: 35% | Number of isomers bound [2]: 1

CC(C)(CO)Nc1ncnc2[nH]ccc12 [AVI-5266]
IC50 ([1]; SARS CoV-2 macrodomain HTRF assay, dose-response, read-out: IC50): 32 µM | Ki ([1]; SARS CoV-2 macrodomain HTRF assay, dose-response, read-out: Ki): 30 µM | IC50 ([1]; read-out: HTRF IC50): 110 µM | Number of isomers bound [2]: 1 | Isomers modeled [2]: achiral

CC1(C)CCN(c2ncnc3[nH]ccc23)C(CO)C1 (centres unmarked) [AVI-5994]
IC50 [1, 3]: 68 µM | Ki [1, 4]: 63 µM | Ligand efficiency (binding enery per heavy atom) [1]: 0.31 | Number of isomers bound [2]: 1 | Isomers modeled [2]: S,S

O[C@H]1CC[C@H]2CCN(c3ncnc4[nH]ccc34)[C@H]21 [AVI-5997]
IC50 [1, 3]: 37 µM | Ki [1, 4]: 34 µM | Ligand efficiency (binding enery per heavy atom) [1]: 0.34 | Number of isomers bound [2]: 1 | Isomers modeled [2]: SSR

OCC1C=CCCN1c1ncnc2[nH]ccc12 (centres unmarked) [AVI-5998]
IC50 [1, 3]: 160 µM | Ki [1, 4]: 150 µM | Ligand efficiency (binding enery per heavy atom) [1]: 0.31 | Number of isomers bound [2]: 1

OCC1CC=CCN1c1ncnc2[nH]ccc12 (centres unmarked) [AVI-6002]
IC50 [1, 3]: 52 µM | Ki [1, 4]: 48 µM | Ligand efficiency (binding enery per heavy atom) [1]: 0.35 | Number of isomers bound [2]: 1

OC1(CNc2ncnc3[nH]ccc23)CCCCC1 [AVI-6217]
IC50 [1, 3]: 42 µM | Ki [1, 4]: 39 µM | Ligand efficiency (binding enery per heavy atom) [1]: 0.34 | Number of isomers bound [2]: 1 | Isomers modeled [2]: achiral

OC1CCC(O)(CNc2ncnc3[nH]ccc23)CC1 (centres unmarked) [AVI-6220]
IC50 [1, 3]: 260 µM | Ki [1, 4]: 240 µM | Ligand efficiency (binding enery per heavy atom) [1]: 0.26 | Number of isomers bound [2]: 1 | Isomers modeled [2]: rr,rr
